From PMC9516563 (JACS Au, 2022)

Assays:
[1] = tested on: SARS-CoV-2 spike pseudoparticles; format: cell-based; details: read-out: IC50 against SARS-CoV-2 spike-mediated transduction
SARS-CoV-2 = format: cell-based, SARS-CoV-2 isolate BetaCoV/France/IDF0372/2020
IAV = format: cell-based, Influenza strain A/PR/8/34 (H1N1; PR8); details: read-out: IAV IC50
[2] = Liposome dye leakage assay; details: read-out: liposome EC50 (dye leakage); 200 nm liposomes filled with 50 mM carboxyfluorescein, 30 min incubation
SARS-CoV-2 virions = tested on: SARS-CoV-2 virions; parameters: species or system SARS-CoV-2 isolate BetaCoV/France/IDF0372/2020

O=C(O)COc1c2c(c(OCC(=O)O)c3c1C1CC3c3cc4c(cc31)C1CC4c3ccccc31)C1CC2c2cc3c(cc21)C1CC3c2ccccc21 [CLR05]
IC50 [1]: 33 µM | inhibition of virus infection (SARS-CoV-2): ~70% | IC50 (SARS-CoV-2; read-out: SARS-CoV-2 IC50): 167 µM | IC50 (IAV): 70.3 µM | EC50 [2]: 121 µM | morphology of treated SARS-CoV-2 virions (TEM) (SARS-CoV-2 virions): largely disrupted
